Measured values published in ChEMBL document CHEMBL1201862, “PubChem BioAssay data set” (2004).
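96-well plates; 48 h exposure; 5 concentrations. Endpoints by linear interpolation between flanking doses. Not reached: highest tested concentration assigned. At the GI50, growth is halved.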 Active and inactive are the calls of the source. Rule as the data show it: active = GI50 up to about 1.1 µM and inactive = higher. Numbered stars: 1 amine (or outer) side, 2 acyl side, 3 side chain; on linkers, the order of the positions; unused ones are H or OH. Bridge positions count the residues as written; N and C are the ends. Square brackets hold non-standard residues; d marks the D form. Peptide text beside a SMILES is read from it. X58 = COc1c(N[*:1])cccc1C(=O)O[C@H](C(=O)[C@H](C)C(=O)[*:2])C(C)C; X57 = CC(C)C[C@H](C(=O)[*:2])C(C)C(=O)C1CCCN1[*:1]; NMeY = CN[C@@H](Cc1ccc(O)cc1)C(=O)O; Lac = C[C@H](O)C(=O)O

Assays:
Test in all cases: DTP human tumour cell line panel, 48 h
RPMI-8226 = system: RPMI-8226
SR = system: SR
TK-10 = system: TK-10
MDA-N = system: MDA-N
SK-MEL-2 = system: SK-MEL-2
OVCAR-3 = system: OVCAR-3
SF-295 = system: SF-295
NCI-H522 = system: NCI-H522
SF-268 = system: SF-268
SK-OV-3 = system: SK-OV-3
CAKI-1 = system: CAKI-1
KM12 = system: KM12
PC-3 = system: PC-3
BT-549 = system: BT-549
OVCAR-5 = system: OVCAR-5
HOP-92 = system: HOP-92
CCRF-CEM = system: CCRF-CEM

Row | SMILES | GI50 (RPMI-8226) | GI50 (SR) | GI50 (TK-10) | GI50 (MDA-N) | GI50 (SK-MEL-2) | GI50 (OVCAR-3) | GI50 (SF-295) | GI50 (NCI-H522) | GI50 (SF-268) | GI50 (SK-OV-3) | GI50 (CAKI-1) | GI50 (KM12) | GI50 (PC-3) | GI50 (BT-549) | GI50 (OVCAR-5) | GI50 (HOP-92) | GI50 (CCRF-CEM)
1 | CN(C)S(=O)(=O)Nc1ccccn1 | > 100 µM (inactive) | > 100 µM (inactive) | > 100 µM (inactive) | > 100 µM (inactive) | > 100 µM (inactive) | > 100 µM (inactive) | > 100 µM (inactive) | > 100 µM (inactive) | > 100 µM (inactive) | > 100 µM (inactive) | > 100 µM (inactive) | > 100 µM (inactive) | > 100 µM (inactive) | > 100 µM (inactive) | > 100 µM (inactive) | > 100 µM (inactive) | –
2 | O=C(O)C(Sc1ccc(Cl)cc1)Sc1ccc(Cl)cc1 | 31.6 µM (inactive) | 39.6 µM (inactive) | 48.6 µM (inactive) | 41.5 µM (inactive) | 26.3 µM (inactive) | 32.6 µM (inactive) | 46.9 µM (inactive) | 32.1 µM (inactive) | 48.9 µM (inactive) | > 100 µM (inactive) | 82.8 µM (inactive) | 37.9 µM (inactive) | 47.4 µM (inactive) | 54.5 µM (inactive) | 53 µM (inactive) | 23.7 µM (inactive) | 28.6 µM (inactive)
3 | O=C(O)CN1C(=O)CN=C(c2ccccn2)c2cc(Cl)ccc21 | > 100 µM (inactive) | 0.547 µM (active) | > 100 µM (inactive) | > 100 µM (inactive) | > 100 µM (inactive) | > 100 µM (inactive) | > 100 µM (inactive) | > 100 µM (inactive) | > 100 µM (inactive) | > 100 µM (inactive) | > 100 µM (inactive) | > 100 µM (inactive) | > 100 µM (inactive) | > 100 µM (inactive) | > 100 µM (inactive) | > 100 µM (inactive) | –
4 | O=C(O)/C=C(/C(=O)O)C12CCN3CC4=CCOC5CC(=O)NC1C5C4CC32 (stereo not given) | > 100 µM (inactive) | > 100 µM (inactive) | > 100 µM (inactive) | > 100 µM (inactive) | > 100 µM (inactive) | > 100 µM (inactive) | > 100 µM (inactive) | > 100 µM (inactive) | > 100 µM (inactive) | > 100 µM (inactive) | > 100 µM (inactive) | > 100 µM (inactive) | > 100 µM (inactive) | > 100 µM (inactive) | > 100 µM (inactive) | > 100 µM (inactive) | > 100 µM (inactive)
5 | COc1ccc(Nc2ccc3ccccc3c2-c2c(O)ccc3ccccc23)cc1 | 9.68 µM (inactive) | 4.93 µM (inactive) | 27.7 µM (inactive) | 12.6 µM (inactive) | 14.4 µM (inactive) | 14.6 µM (inactive) | 18.4 µM (inactive) | 18.2 µM (inactive) | 17.8 µM (inactive) | – | 16.1 µM (inactive) | 16.1 µM (inactive) | 15.8 µM (inactive) | 24.4 µM (inactive) | 16.9 µM (inactive) | 4.16 µM (inactive) | 18.3 µM (inactive)
6 | N#C/C(=C\c1ccc(F)cc1)c1nc2ccccc2c(=O)[nH]1 | > 100 µM (inactive) | > 100 µM (inactive) | > 100 µM (inactive) | > 100 µM (inactive) | > 100 µM (inactive) | – | > 100 µM (inactive) | > 100 µM (inactive) | 58.6 µM (inactive) | > 100 µM (inactive) | > 100 µM (inactive) | 3.91 µM (inactive) | > 100 µM (inactive) | 36.8 µM (inactive) | > 100 µM (inactive) | 82.2 µM (inactive) | > 100 µM (inactive)
7 | N#Cc1c(N)c2c(c(-c3ccccc3)c1-c1ccccc1)C(=O)N(NC(=O)c1ccccc1)C2=O | 31.2 µM (inactive) | 44.5 µM (inactive) | > 100 µM (inactive) | 72.6 µM (inactive) | > 100 µM (inactive) | 31 µM (inactive) | > 100 µM (inactive) | 81.7 µM (inactive) | > 100 µM (inactive) | – | > 100 µM (inactive) | > 100 µM (inactive) | 65.2 µM (inactive) | > 100 µM (inactive) | > 100 µM (inactive) | 60.5 µM (inactive) | 42.3 µM (inactive)
8 | C[C@H](C(O)CC(=O)C(C)(C)O)[C@H]1CC[C@@]2(C)[C@@H]3CC[C@H]4C(C)(C)[C@@H](OC5OC(COC6OC(CO)C(O)C(O)C6O)C(O)C(O)C5O)CC[C@]4(C)C3=CC[C@]12C (stereo not given in full) | > 100 µM (inactive) | > 100 µM (inactive) | > 100 µM (inactive) | > 100 µM (inactive) | > 100 µM (inactive) | > 100 µM (inactive) | > 100 µM (inactive) | > 100 µM (inactive) | > 100 µM (inactive) | > 100 µM (inactive) | > 100 µM (inactive) | > 100 µM (inactive) | > 100 µM (inactive) | > 100 µM (inactive) | > 100 µM (inactive) | > 100 µM (inactive) | > 100 µM (inactive)
9 | CC(=O)Nc1ccc(N2C(=O)/C(=C\c3cccc(Oc4ccccc4)c3)S(=O)(=O)C2c2ccccc2)cc1 (stereo not given) | 20.4 µM (inactive) | 31.4 µM (inactive) | > 100 µM (inactive) | 27.2 µM (inactive) | > 100 µM (inactive) | 49.4 µM (inactive) | 89.5 µM (inactive) | 71.8 µM (inactive) | – | > 100 µM (inactive) | > 100 µM (inactive) | > 100 µM (inactive) | 61.1 µM (inactive) | > 100 µM (inactive) | > 100 µM (inactive) | 55.2 µM (inactive) | 27.7 µM (inactive)
10 | O=C1Nc2ccc(Cl)cc2C(=O)N2CCC[C@@H]12 | > 100 µM (inactive) | > 100 µM (inactive) | > 100 µM (inactive) | > 100 µM (inactive) | > 100 µM (inactive) | > 100 µM (inactive) | > 100 µM (inactive) | > 100 µM (inactive) | > 100 µM (inactive) | > 100 µM (inactive) | > 100 µM (inactive) | > 100 µM (inactive) | > 100 µM (inactive) | > 100 µM (inactive) | > 100 µM (inactive) | > 100 µM (inactive) | –
11 | C/C=C1\CN2CCC34c5ccccc5N(C)C35OCC4(C(=O)OC)C1CC25 (stereo not given) | 24.7 µM (inactive) | 26.2 µM (inactive) | > 100 µM (inactive) | 46.5 µM (inactive) | 42.2 µM (inactive) | 76.2 µM (inactive) | 34.4 µM (inactive) | 47.8 µM (inactive) | > 100 µM (inactive) | > 100 µM (inactive) | 99.3 µM (inactive) | 37.1 µM (inactive) | 27.9 µM (inactive) | 34.3 µM (inactive) | > 100 µM (inactive) | 28.6 µM (inactive) | 42.7 µM (inactive)
12 | N#C/C=C\c1ccc(-c2cc(C(F)(F)F)cc(C(F)(F)F)c2)o1 | > 100 µM (inactive) | 19.3 µM (inactive) | – | 22 µM (inactive) | 15.6 µM (inactive) | > 100 µM (inactive) | 19.4 µM (inactive) | 48 µM (inactive) | 25.9 µM (inactive) | 30.3 µM (inactive) | 35.3 µM (inactive) | 49 µM (inactive) | > 100 µM (inactive) | 36.7 µM (inactive) | > 100 µM (inactive) | 20.7 µM (inactive) | 47 µM (inactive)
13 | O=C1/C(=C/c2ccccc2)N=C(c2ccccc2)N1n1c(-c2ccccc2)nc2ccccc2c1=O | 28.8 µM (inactive) | 31 µM (inactive) | > 100 µM (inactive) | 54.8 µM (inactive) | – | 57.9 µM (inactive) | 91 µM (inactive) | 46.6 µM (inactive) | 64.6 µM (inactive) | > 100 µM (inactive) | – | 61.7 µM (inactive) | 57.7 µM (inactive) | 31.6 µM (inactive) | > 100 µM (inactive) | 97.5 µM (inactive) | 32.8 µM (inactive)
14 | CCOC(=O)c1nc2ccccc2nc1NCc1ccc(OC)c(OC)c1 | > 100 µM (inactive) | > 100 µM (inactive) | 82.4 µM (inactive) | > 100 µM (inactive) | – | > 100 µM (inactive) | > 100 µM (inactive) | > 100 µM (inactive) | > 100 µM (inactive) | > 100 µM (inactive) | > 100 µM (inactive) | > 100 µM (inactive) | > 100 µM (inactive) | > 100 µM (inactive) | > 100 µM (inactive) | > 100 µM (inactive) | > 100 µM (inactive)
15 | CCO[C@@]12CCC3CC4CC[C@@](OCC)(O1)C4C32 (stereo not given in full) | > 100 µM (inactive) | > 100 µM (inactive) | > 100 µM (inactive) | > 100 µM (inactive) | > 100 µM (inactive) | > 100 µM (inactive) | > 100 µM (inactive) | > 100 µM (inactive) | > 100 µM (inactive) | > 100 µM (inactive) | > 100 µM (inactive) | > 100 µM (inactive) | > 100 µM (inactive) | > 100 µM (inactive) | > 100 µM (inactive) | > 100 µM (inactive) | > 100 µM (inactive)
16 | COc1ccc(C[C@H]2C(=O)O[C@H](C)[C@H](NC(=O)[C@@H](CC(C)C)C(C)C(=O)C3CCCN3C(=O)[C@H](C)O)C(=O)Nc3cccc(c3OC)C(=O)O[C@@H](C(C)C)C(=O)[C@H](C)C(=O)N[C@@H](CC(C)C)C(=O)N3CCC[C@H]3C(=O)N2C)cc1 (stereo not given in full) (H-[Lac][X57]T[X58]LP[NMeY](Me); ester 3-C) | 6.53 µM (inactive) | 5.09 µM (inactive) | > 12.5 µM (inactive) | 10.1 µM (inactive) | > 12.5 µM (inactive) | 7.38 µM (inactive) | > 12.5 µM (inactive) | 9.82 µM (inactive) | > 12.5 µM (inactive) | > 12.5 µM (inactive) | > 12.5 µM (inactive) | > 12.5 µM (inactive) | 3.85 µM (inactive) | > 12.5 µM (inactive) | > 12.5 µM (inactive) | > 12.5 µM (inactive) | –
